Measured values as given in patent US7642269B2, “Pyrrolo[3,2-B]pyridine derivatives and processes for the preparation thereof” (Yuhan Corporation, priority 2005, dated 2010).
Structures can show the parent of a compound that is named as a salt.

biological target: T1, H^+/K^+-ATPase (Sus scrofa, UniProt P19156); experiment: Inhibitory effects on proton pump (H^+/K^+-ATPase) activity, hog gastric vesicles; type: biochemical; settings: K^+ stimulated H^+/K^+-ATPase activity, hog gastric vesicle, Pi measured at 620 nm
T1 construct: used as an enzyme source of the in vitro enzyme reaction assay of proton pump; from tissue; host or cells: hog gastric fundic mucosa (membrane vesicles, lyophilized)
Procedure: Preparation of Gastric Proton Pump Vesicles
The hog fundic regions containing parietal and peptic cells were scraped with slide-glass. The collected cells were suspended in 10 ml of 0.25M sucrose buffer and homogenized using a tight-fitting Teflon-glass homogenizer. The homogenate was centrifuged for 35 min at 8,000 rpm and the pellet was discarded. The supernatant was further centrifuged for 75 min at 25,000 rpm. The resulting pellets were re-suspended in the sucrose buffer (10 ml), and then the suspension was laid onto discontinuous density gradients consisting of 0.25M sucrose buffer and isolation medium containing 9% Ficoll (w/w). After being centrifuged for 3 hours and 15 minutes at 100,000×g, the material at the interface of sucrose buffer and Ficoll solution was collected and then centrifuged for 40 minutes at 100,000×g. The resulting pellets were re-suspended in 1 ml of 5 mM Hepes/Tris buffer (pH 6.1). This material was lyophilized and stored at −70° C. and used as an enzyme source of the in vitro enzyme reaction assay of proton pump.
1-2. Measurement of Inhibitory Effects on Proton Pump (H+/K+-ATPase) activity
The inhibitory effects of the compounds of the present invention against proton pump activity were evaluated in 96-well plate. In this assay, the K^+ specific H^+/K^+-ATPase activity was calculated based on the difference between the activity of H^+/K^+-ATPase activity with K^+ and without K^+ ion. In 96-well plate, 1% dimethylsulfoxide (DMSO) in buffer was added to negative and positive control groups and the diluted compounds of the present invention in buffer were added to test group. All assays were performed in 100 μl reaction volume at room temperature, and the hog gastric vesicle was kept in ice before use. At the beginning of the reaction, 10 μl of reaction buffer containing 1% DMSO was added to the negative and positive control groups and to each concentration of compounds in the test group. Then lyophilized vesicle in 5 mM Pipes/Tris buffer (pH 6.1) was pre-incubated in the presence of various concentrations of test compounds. After a 5 minute incubation, negative and positive buffers were respectively added to the previous reaction mixture. As the substrate, ATP was added to the reaction buffer, and incubated for 30 minutes at 37° C. Enzymatic activity was stopped by the addition of colorimetric reagent (2× malachite green, 1× ammonium molybdate, 1× polyvinyl alcohol, 2× H2O) and the amount of mono phosphate (Pi) in the reaction was measured at 620 nm using the micro plate reader (Genios Pro, TECAN). The difference between the Pi production with K^+ and without K^+ is taken as K^+ stimulated H^+/K^+-ATPase activity.

T1 sequence (P19156 2-1034 limits assumed): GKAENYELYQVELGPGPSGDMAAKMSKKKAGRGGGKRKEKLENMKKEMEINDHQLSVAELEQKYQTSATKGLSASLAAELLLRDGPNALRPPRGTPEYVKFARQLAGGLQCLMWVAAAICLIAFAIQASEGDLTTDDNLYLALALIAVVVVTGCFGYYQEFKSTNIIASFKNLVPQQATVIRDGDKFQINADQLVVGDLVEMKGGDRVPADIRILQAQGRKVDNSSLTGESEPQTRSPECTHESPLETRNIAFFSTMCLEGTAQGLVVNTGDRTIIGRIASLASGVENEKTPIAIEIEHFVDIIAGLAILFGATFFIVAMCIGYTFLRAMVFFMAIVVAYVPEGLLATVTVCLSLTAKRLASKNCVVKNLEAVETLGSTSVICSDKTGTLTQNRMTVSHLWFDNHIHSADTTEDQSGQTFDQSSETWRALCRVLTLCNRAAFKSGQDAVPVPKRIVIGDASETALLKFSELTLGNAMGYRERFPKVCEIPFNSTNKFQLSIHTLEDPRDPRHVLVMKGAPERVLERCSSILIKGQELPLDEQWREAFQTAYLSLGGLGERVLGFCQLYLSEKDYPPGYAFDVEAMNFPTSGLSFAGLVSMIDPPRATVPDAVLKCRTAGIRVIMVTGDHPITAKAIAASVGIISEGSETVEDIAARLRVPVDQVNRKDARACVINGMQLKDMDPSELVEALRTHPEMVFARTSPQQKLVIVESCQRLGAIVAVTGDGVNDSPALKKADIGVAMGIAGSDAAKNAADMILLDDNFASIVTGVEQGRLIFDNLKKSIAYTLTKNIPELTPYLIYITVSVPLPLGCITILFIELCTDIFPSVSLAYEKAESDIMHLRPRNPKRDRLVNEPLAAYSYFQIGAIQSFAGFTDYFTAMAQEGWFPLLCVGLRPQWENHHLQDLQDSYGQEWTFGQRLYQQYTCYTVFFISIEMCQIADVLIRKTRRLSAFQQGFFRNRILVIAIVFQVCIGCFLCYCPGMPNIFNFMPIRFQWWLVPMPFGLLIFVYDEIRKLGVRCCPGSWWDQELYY
T1 sequence (P18434 whole entry partner): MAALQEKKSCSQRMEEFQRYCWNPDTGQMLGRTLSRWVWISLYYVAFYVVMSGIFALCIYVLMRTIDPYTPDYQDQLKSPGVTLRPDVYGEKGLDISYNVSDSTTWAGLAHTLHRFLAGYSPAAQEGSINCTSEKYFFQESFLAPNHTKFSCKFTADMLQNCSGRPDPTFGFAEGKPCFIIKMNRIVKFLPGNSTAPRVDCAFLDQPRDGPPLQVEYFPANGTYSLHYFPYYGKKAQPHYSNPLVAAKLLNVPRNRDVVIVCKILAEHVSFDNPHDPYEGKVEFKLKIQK

| Compound | IC50 [nM] |
| --- | --- |
| Cc1cccc(Cn2c(C)c(C)c3nccc(N4CCc5ccccc5C4)c32)c1 [Example 12, 1-(3-methylbenzyl)-7-(1,2,3,4-tetrahydroisoquinolin-2-yl)-2,3-dimethyl-1H-pyrrolo[3,2-b]pyridine hydrochloride] | 970 |
| 1-(3-methylbuten-2-yl)-7-(1,2,3,4-tetrahydroisoquinolin-2-yl)-2,3-dimethyl-1H-pyrrolo[3,2-b]pyridine hydrochloride [Example 16] | 190 |
| Cc1c(C)n(Cc2cccc(F)c2)c2c(OCc3ccc(F)cc3)ccnc12 [Example 40, 1-(3-fluorobenzyl)-7-(4-fluorobenzyloxy)-2,3-dimethyl-1H-pyrrolo[3,2-b]pyridine hydrochloride] | 190 |
| C=COCCn1c(C)c(C)c2nccc(OCc3ccc(F)cc3)c21 [Example 38, 7-(4-fluorobenzyloxy)-2,3-dimethyl-1-(2-vinyloxyethyl)-1H-pyrrolo[3,2-b]pyridine hydrochloride] | 1310 |
| Cc1c(C)n(CC2OCCO2)c2c(OCc3ccc(Cl)cc3)ccnc12 [Example 87, 7-(4-chlorobenzyloxy)-1-(1,3-dioxolan-2-ylmethyl)-2,3-dimethyl-1H-pyrrolo[3,2-b]pyridine hydrochloride] | 160 |
| Cc1c(C)n(CC(C)C)c2c(OCc3ccc4c(c3)OCO4)ccnc12 [Example 120, 7-(benzo[1,3]dioxol-5-ylmethoxy)-1-isobutyl-2,3-dimethyl-1H-pyrrolo[3,2-b]pyridine hydrochloride] | 120 |
| COCCn1c(C)c(C)c2nccc(N3CCc4ccccc4C3)c21 [Example 5, 1-(2-methoxyethyl)-7-(1,2,3,4-tetrahydroisoquinolin-2-yl)-2,3-dimethyl-1H-pyrrolo[3,2-b]pyridine hydrochloride] | 320 |
| COc1ccc(Cn2c(C)c(C)c3nccc(N4CCc5ccccc5C4)c32)cc1 [Example 10, 1-(4-methoxybenzyl)-7-(1,2,3,4-tetrahydroisoquinolin-2-yl)-2,3-dimethyl-1H-pyrrolo[3,2-b]pyridine hydrochloride] | 690 |
| COC(=O)Cn1c(C)c(C)c2nccc(OCc3ccc(Cl)cc3)c21 [Example 83, [7-(4-chlorobenzyloxy)-2,3-dimethyl-pyrrolo[3,2-b]pyridin-1-yl]acetic acid methyl ester hydrochloride] | 3820 |
| COC(=O)c1ccc(Cn2c(C)c(C)c3nccc(OCc4ccc(F)cc4)c32)cc1 [Example 35, 4-[7-(4-fluorobenzyloxy)-2,3-dimethyl-pyrrolo[3,2-b]pyridin-1-ylmethyl]-benzoic acid methyl ester hydrochloride] | 1090 |
| Cc1c(C)n(CC2OCCO2)c2c(N3CCc4ccccc4C3)ccnc12 [Example 3, 1-(1,3-dioxolan-2-ylmethyl)-7-(1,2,3,4-tetrahydroisoquinolin-2-yl)-2,3-dimethyl-1H-pyrrolo[3,2-b]pyridine hydrochloride] | 640 |
| COCn1c(C)c(C)c2nccc(OCc3ccc(Cl)cc3)c21 [Example 74, 7-(4-chlorobenzyloxy)-1-methoxymethyl-2,3-dimethyl-1H-pyrrolo[3,2-b]pyridine hydrochloride] | 1080 |
| CCn1c(C)c(C)c2nccc(OCc3ccc4c(c3)OCO4)c21 [Example 117, 7-(benzo[1,3]dioxol-5-ylmethoxy)-1-ethyl-2,3-dimethyl-1H-pyrrolo[3,2-b]pyridine hydrochloride] | 720 |
| COc1cccc(Cn2c(C)c(C)c3nccc(OCc4ccc5c(c4)OCO5)c32)c1 [Example 119, 7-(benzo[1,3]dioxol-5-ylmethoxy)-1-(3-methoxybenzyl)-2,3-dimethyl-1H-pyrrolo[3,2-b]pyridine hydrochloride] | 230 |
| C=CCn1c(C)c(C)c2nccc(N3CCc4ccccc4C3)c21 [Example 7, 1-allyl-7-(1,2,3,4-tetrahydroisoquinolin-2-yl)-2,3-dimethyl-1H-pyrrolo[3,2-b]pyridine hydrochloride] | 220 |
| Cc1c(C)n(Cc2ccc(F)cc2)c2c(OCc3ccc(Cl)cc3)ccnc12 [Example 91, 7-(4-chlorobenzyloxy)-1-(4-fluorobenzyl)-2,3-dimethyl-1H-pyrrolo[3,2-b]pyridine hydrochloride] | 460 |
| Cc1c(C)n(CC2OCCO2)c2c(OCc3ccc(F)cc3)ccnc12 [Example 39, 1-(1,3-dioxolan-2-ylmethyl)-7-(4-fluorobenzyloxy)-2,3-dimethyl-1H-pyrrolo[3,2-b]pyridine hydrochloride] | 220 |

Further lines, results first:

| IC50 [nM] | Compound |
| --- | --- |
| 1250 | Cc1nc2c(C)c(C)n(Cc3ccccc3)c2c(NCc2ccc(F)cc2)c1C [Example 268, N-(1-benzyl-2,3,5,6-tetramethyl-1H-pyrrolo[3,2-b]pyridin-7-yl)-4-fluorobenzylamine hydrochloride] |
| 60 | CCn1c(C)c(C)c2nccc(OCc3ccc(Cl)cc3Cl)c21 [Example 137, 7-(2,4-dichlorobenzyloxy)-1-ethyl-2,3-dimethyl-1H-pyrrolo[3,2-b]pyridine hydrochloride] |
| 40 | COCCn1c(C)c(C)c2nccc(OCc3ccc(F)cc3)c21 [Example 130, 7-(4-fluorobenzyloxy)-1-(2-methoxyethyl)-2,3-dimethyl-1H-pyrrolo[3,2-b]pyridine malonate] |
| 90 | Cc1c(C)n(CC2CCC2)c2c(OCc3ccc(Br)cc3)ccnc12 [Example 227, 7-(4-bromobenzyloxy)-1-cyclobutylmethyl-2,3-dimethyl-1H-pyrrolo[3,2-b]pyridine hydrochloride] |
| 620 | Cc1c(C)n(Cc2ccccc2F)c2c(OCc3ccc(Br)cc3)ccnc12 [Example 225, 7-(4-bromobenzyloxy)-1-(2-fluorobenzyl)-2,3-dimethyl-1H-pyrrolo[3,2-b]pyridine hydrochloride] |
| 50 | Cc1c(C)n(Cc2ccccc2)c2c(OCc3ccc(Cl)cc3Cl)ccnc12 [Example 136, 1-benzyl-7-(2,4-dichlorobenzyloxy)-2,3-dimethyl-1H-pyrrolo[3,2-b]pyridine hydrochloride] |
| 50 | COCCn1c(C)c(C)c2nccc(OCc3ccc(F)cc3)c21 [Example 126, 7-(4-fluorobenzyloxy)-1-(2-methoxyethyl)-2,3-dimethyl-1H-pyrrolo[3,2-b]pyridine nitrate] |
| 150 | CC(C)=CCn1c(C)c(C)c2nccc(OCc3ccc(Cl)cc3Cl)c21 [Example 135, 7-(2,4-dichlorobenzyloxy)-2,3-dimethyl-1-(3-methylbut-2-enyl)-1H-pyrrolo[3,2-b]pyridine hydrochloride] |
| 610 | Cc1ccc(Cn2c(C)c(C)c3nccc(OCc4cccc(C)c4)c32)cc1 [Example 156, 2,3-dimethyl-1-(4-methylbenzyl)-7-(3-methylbenzyloxy)-1H-pyrrolo[3,2-b]pyridine hydrochloride] |
| 90 | COc1cccc(Cn2c(C)c(C)c3nccc(OCc4ccc(Cl)cc4Cl)c32)c1 [Example 141, 7-(2,4-dichlorobenzyloxy)-1-(3-methoxybenzyl)-2,3-dimethyl-1H-pyrrolo[3,2-b]pyridine hydrochloride] |
| 880 | COc1cccc(Cn2c(C)c(C)c3nccc(OCc4cccc(C)c4)c32)c1 [Example 159, 1-(3-methoxybenzyl)-2,3-dimethyl-7-(3-methylbenzyloxy)-1H-pyrrolo[3,2-b]pyridine hydrochloride] |
| 1210 | Cc1cccc(Cn2c(C)c(C)c3nccc(OCc4ccc(Br)cc4)c32)c1 [Example 223, 7-(4-bromobenzyloxy)-2,3-dimethyl-1-(3-methylbenzyl)-1H-pyrrolo[3,2-b]pyridine hydrochloride] |
| 2080 | COCCn1c(C)c(C)c2nccc(NCc3ccc(F)cc3)c21 [Example 256, N-[1-(2-methoxyethyl)-2,3-dimethyl-1H-pyrrolo[3,2-b]pyridin-7-yl]-4-fluorobenzylamine hydrochloride] |
| 1010 | CCOc1ccccc1COc1ccnc2c(C)c(C)n(CC3CCC3)c12 [Example 163, 1-cyclobutylmethyl-7-(2-ethoxybenzyloxy)-2,3-dimethyl-1H-pyrrolo[3,2-b]pyridine hydrochloride] |
| 530 | CCn1c(C)c(C)c2nccc(OCc3cccc(C)c3)c21 [Example 145, 1-ethyl-2,3-dimethyl-7-(3-methylbenzyloxy)-1H-pyrrolo[3,2-b]pyridine hydrochloride] |
| 60 | COCCn1c(C)c(C)c2nccc(OCc3ccc(F)cc3)c21 [Example 131, 7-(4-fluorobenzyloxy)-1-(2-methoxyethyl)-2,3-dimethyl-1H-pyrrolo[3,2-b]pyridine camphosulfonate] |
